Test results reported in US8084630B2, “Process for the synthesis of ramelteon and its intermediates” (Teva Pharmaceutical Industries Ltd., priority 2007, dated 2011).
“And” between values parts separate entries of the source, which are not always exact repeats. Equal values may be shown once. Read-outs that look alike come from different tables or passages of the source.

Key:
[1] = Electrostatic charge measurement (shaking can, Faraday cup); type: physicochemical; conditions: for Average Charge Density of Batch: 3 samples; for Calculated Charge Density: shaken 90 seconds
Text: Electrostatic Charge Measurement
Equipment and Accessories
Electrical Shaker—Scientific Industries type Vortex-2 Genie (including specific holder for the shaking cans).
Electrostatic Charge Meter—Monroe Electronics type Nanocoulomb Meter 253 (Faraday Cup).
Metal shaking can, S.S. 316, 30×50_mm.
Plastic shaking can, Perspex, 30×50_mm.
Description of Test Procedure
Calibration of the Electrostatic Charge Meter, prior the test according to manufacturer's procedure.
6 sample cans were used for each batch.
The shaking can placed in flat dish, the sample cam was opened and the powder was manually poured into the shaking can.
The shaking can was hermetically closed by plastic cover and mounted in the holder.
The electrical shaker was operated for 90 seconds, at maximum rate.
Subsequent of the shaking period the shaking can was moved into the flat dish, the cover was removed and the powder was manually poured into a glass can within the Faraday-Cup. Some of the powder was transferred by gravitational pouring (90-99%), the rest was transferred by manually push using wooden spatula (with strict adherence to tender motion).
The Faraday-Cup was closed and the charge reading (in meter display) was recorded. The described test stages were equally conducted on the selected 6 samples of each batch, as follow: 3 powder samples were shaken in metal can, 3 powder samples were shaken in plastic can. All the samples were shaken in each can for the same time period of 90 seconds.

[2] = Flowability, FT4 Powder Rheometer (REP+VFR); type: physicochemical; conditions: 25 mm blade, 25 ml vessel; for BFE (Basic Flow Energy = Energy Test 7): tipspeed 100 mm/s
Experimental: Instrument: FT4 Powder Rheometer (Freeman Technology Ltd).
Methodology: The blade was rotated and simultaneously moved axially into a powder sample whist axial force and rotational forces are measured.
The 25 mm blade and a 25 ml split borosilicate test vessel were used.
The Stability and Variable Flow Rate programs were run together by combining the two methods into one program (REP+VFR). The REP+VFR study is a combination of the seven conditioning and test cycles (blade tipspeed is 100 mm/s) at constant speed and the four conditioning and test cycles (blade tipspeed is 100, 70, 40 and 10 mm/s, respectively) with decreasing in blade speed. Definitions of the Flow Parameters:
Basic Flow Energy (BFE)=Energy Test 7, mJ
Stability index (SI)=Energy test 7/Energy Test 1

[3] = cited from earlier work
melatonin MT2 receptor = molecular target: T1, melatonin MT2 receptor (Homo sapiens, UniProt P49286); conditions: cited from earlier work
T1 sequence (P49286 1-362): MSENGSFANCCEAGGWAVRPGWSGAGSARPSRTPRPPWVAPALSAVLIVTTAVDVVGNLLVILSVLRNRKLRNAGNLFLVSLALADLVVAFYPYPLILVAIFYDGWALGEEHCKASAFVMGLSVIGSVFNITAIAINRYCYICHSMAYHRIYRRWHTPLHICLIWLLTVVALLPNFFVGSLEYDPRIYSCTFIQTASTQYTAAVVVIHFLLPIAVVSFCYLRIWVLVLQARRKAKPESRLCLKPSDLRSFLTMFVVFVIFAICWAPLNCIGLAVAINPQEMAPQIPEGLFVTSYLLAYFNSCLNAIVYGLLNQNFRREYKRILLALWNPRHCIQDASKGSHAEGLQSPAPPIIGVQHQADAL

MT3 receptor = molecular target: T2, MT3 receptor (Homo sapiens, UniProt P16083); conditions: cited from earlier work
T2 sequence (P16083 1-231): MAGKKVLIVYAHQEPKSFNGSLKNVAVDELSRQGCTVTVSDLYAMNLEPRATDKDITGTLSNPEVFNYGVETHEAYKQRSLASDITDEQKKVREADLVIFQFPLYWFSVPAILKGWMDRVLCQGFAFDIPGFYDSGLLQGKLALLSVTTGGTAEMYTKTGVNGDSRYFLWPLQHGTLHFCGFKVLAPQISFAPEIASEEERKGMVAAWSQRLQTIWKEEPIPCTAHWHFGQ

melatonin MT1 receptor = melatonin MT1 receptor (Homo sapiens, UniProt P48039); conditions: cited from earlier work
Chain of melatonin MT1 receptor (P48039 whole entry): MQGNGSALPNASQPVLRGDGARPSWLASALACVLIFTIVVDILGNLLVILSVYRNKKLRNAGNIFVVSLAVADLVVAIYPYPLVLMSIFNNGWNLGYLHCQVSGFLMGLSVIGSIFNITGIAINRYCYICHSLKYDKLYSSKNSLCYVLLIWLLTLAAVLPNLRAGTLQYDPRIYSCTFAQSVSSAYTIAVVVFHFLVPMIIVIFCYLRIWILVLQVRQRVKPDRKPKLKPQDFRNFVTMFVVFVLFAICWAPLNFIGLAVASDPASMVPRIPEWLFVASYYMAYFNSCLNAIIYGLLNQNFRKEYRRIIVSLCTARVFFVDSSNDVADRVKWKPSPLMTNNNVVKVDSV

| Compound | average charge density relative to sample obtained from Toluene ([1]; metal can) | Average Charge Density of Batch ([1]; metal can) | Calculated Charge Density ([1]; metal can) | average charge density relative to sample obtained from Toluene ([1]; plastic can) | Average Charge Density of Batch ([1]; plastic can) | Calculated Charge Density ([1]; plastic can) | SI (Stability index = Energy test 7/Energy Test 1) [2] | BFE (Basic Flow Energy = Energy Test 7) ([2]; listed as Sample from Ethylacetate) | solubility ([3]; 1-octanol) | solubility ([3]; DMSO) | solubility ([3]; aqueous buffer) | solubility ([3]; ethanol) | solubility ([3]; methanol) | solubility ([3]; water) | affinity for melatonin MT2 receptor (melatonin MT2 receptor) | selectivity over the MT3 receptor (MT3 receptor) | affinity for melatonin MT1 receptor (melatonin MT1 receptor) | BFE (Basic Flow Energy = Energy Test 7) ([2]; listed as Sample from Toluene) | SI (Stability index = Energy test 7/Energy Test 1) ([2]; listed as Sample from Toluene) |
| --- | --- | --- | --- | --- | --- | --- | --- | --- | --- | --- | --- | --- | --- | --- | --- | --- | --- | --- | --- |
| CCC(=O)NCC[C@@H]1CCc2ccc3c(c21)CCO3 [Ethyl Acetate, ramelteon] | about 12 times | 9.63 nC/gr | 8.8 nC/gr and 10.1 nC/gr and 10.0 nC/gr | about 15 times | 10.82 nC/gr | 10.1 nC/gr and 14.05 nC/gr and 8.3 nC/gr | 0.622 | 181 mJ |  |  |  |  |  |  |  |  |  |  |  |
| CCC(=O)NCC[C@@H]1CCc2ccc3c(c21)CCO3 [Ramelteon, (S)—N-[2-(1,6,7,8-tetrahydro-2H-indeno-[5,4-b]furan-8-yl)ethyl]propionamide] |  |  |  |  |  |  |  |  | freely soluble | freely soluble | highly soluble | freely soluble | freely soluble | highly soluble | high affinity | selectivity over the MT3 receptor | high affinity |  |  |
| CCC(=O)NCC[C@@H]1CCc2ccc3c(c21)CCO3 [Toluene, ramelteon] |  | 0.82 nC/gr |  |  | 0.72 nC/gr | 0.85 nC/gr and 0.6 nC/gr and 0.7 nC/gr |  |  |  |  |  |  |  |  |  |  |  | 92.5 mJ | 1.02 |
